Results from patent publication US20210275547A1, “Methods of Modulating Activity of a Cyclic Dinucleotide (CDN) with a CDN Transporter-Modulating Agent” (THE REGENTS OF THE UNIVERSITY OF CALIFORNIA, priority 2018, published 2021).
Entries after “also recorded” stand apart in the source; their conditions may differ.

Columns and labels:
SLC19A1 [1] = biological target: T1, SLC19A1 (Homo sapiens, UniProt P41440); assay: Reporter response to CDNs in THP-1 cells with SLC19A1 knocked down or overexpressed; details: SLC19A1 knockdown vs control, synthetic CDN 1.7 μg/ml, hIFNβ 100 ng/ml, 20 h
T1 sequence (P41440 1-591): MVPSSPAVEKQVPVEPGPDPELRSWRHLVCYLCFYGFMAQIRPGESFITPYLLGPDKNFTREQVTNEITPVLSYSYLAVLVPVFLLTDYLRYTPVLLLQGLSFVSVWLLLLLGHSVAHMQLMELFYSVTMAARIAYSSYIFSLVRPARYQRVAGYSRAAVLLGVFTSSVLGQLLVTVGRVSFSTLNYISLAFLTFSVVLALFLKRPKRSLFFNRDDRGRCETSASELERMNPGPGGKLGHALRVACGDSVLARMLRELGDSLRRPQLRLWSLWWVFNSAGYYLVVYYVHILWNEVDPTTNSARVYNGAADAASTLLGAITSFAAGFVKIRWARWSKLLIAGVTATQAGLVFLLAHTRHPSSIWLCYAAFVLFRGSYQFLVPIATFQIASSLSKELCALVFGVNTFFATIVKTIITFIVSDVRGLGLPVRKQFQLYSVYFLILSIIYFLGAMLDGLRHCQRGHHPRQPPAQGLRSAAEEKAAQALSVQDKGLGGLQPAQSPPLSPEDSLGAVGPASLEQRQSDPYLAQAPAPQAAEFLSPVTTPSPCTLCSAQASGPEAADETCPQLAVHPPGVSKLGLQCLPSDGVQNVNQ
Method: To test the role of SLC19A1 in the response to extracellular CDNs, THP-1 cell lines were created in which SLC19A1 was knocked-down or knocked-out, using conventional methods. SLC19A1 knockdown was confirmed and cells were stimulated with synthetic CDN or hIFNβ.
Panel A) Flow cytometry-generated dot plots of THP-1 cells expressing an ISRE-driven tdTomato reporter. Reporter expression was induced upon stimulation with the synthetic CDN (1.7 μg/ml) for 20 h. Panel B) Validation of targets identified by a genome-wide screen using THP-1 cells described in (Panel A) using conventional methods. Cells expressed a control vector or IRF3 or SLC19A1 gRNA. Cells were stimulated with (Panel B) synthetic CDN (1.7 μg/ml) or (Panel D) human interferon-beta (hIFNβ) (100 ng/ml) for 20 h. Cells were analyzed for reporter by flow cytometry as in (A). E) Indicated cell lines expressing SLC19A1 or vector only were stimulated with synthetic CDN (1.7 μg/ml). Reporter expression was measured 20 h after stimulation.

[2] = tested on: THP-1 cells expressing an ISRE-driven tdTomato reporter; assay: Synthetic CDN or hIFNβ stimulation of tdTomato reporter THP-1 cells in the presence of sulfasalazine; assay type: cell-based, human
From the text: To identify genes encoding molecules involved in this process, a reporter system was created to detect STING activation in response to extracellular CDNs, in order to perform a genetic screen. The reporter was composed of an Interferon Stimulatory Response Element (ISRE) cassette driving the expression of the fluorescent protein tdTomato. […] Subsequently, THP-1 cells containing the reporter were transduced with a genome-wide library of guide RNAs (gRNAs), which suppress expression of target genes. The library targeted 20,000 genes within the human genome. The gRNA library-expressing THP-1 cells were stimulated with synthetic CDN, and the cells were subsequently sorted into two populations based on either low (hyporesponsive) or high (hyper-responsive) levels of tdTomato reporter expression. These populations were sequenced to reveal the RNA targets. As expected, gRNAs targeting components of the STING pathway, including IRF3 and STING itself, were enriched in the hyporesponsive cells and depleted in the hyper-responsive cells, corroborating the success of the screening procedure. Other “hits” in the screen were examined for their role in CDN transport.
The transport activity of folate by SLC19A1 can be altered by a variety of organic and inorganic anions, including the compound sulfasalazine (Jansen et al. “Sulfasalazine is a potent inhibitor of the reduced folate carrier: Implications for combination therapies with methotrexate in rheumatoid arthritis.” Arthritis Rheum. 50, 2130-2139 (2004); Goldman, “The characteristics of the membrane transport of amethopterin and the naturally occurring folates.” Ann. N. Y. Acad. Sci. 186, 400-22 (1971)). […] We therefore tested whether sulfasalazine blocks the response of cells to CDNs.
FIG. 2. Panel A) THP-1 cells were stimulated with synthetic CDN (2.5 μg/ml) in the presence of high concentrations of sulfasalazine (SSZ) or vehicle. Reporter expression was measured 20 h post stimulation. […] Reporter expression was measured 20 h post stimulation.

SLC19A1 [3] = biological target: T1, SLC19A1; details: at high doses; cited from earlier work

effect of knocking down SLC19A1 expression on the response to the stimulant (SLC19A1 [1]) | Structure (SMILES) | response of the cells to hIFNβ ([2]; either low or high sulfasalazine concentrations) | response to synthetic CDN stimulation (reporter expression) ([2]; high concentration (1000 μM) of sulfasalazine, synthetic CDN 2.5 μg/ml, 20 h post stimulation) | responsiveness of cells to synthetic CDN compared to untreated cells (reporter expression) ([2]; low concentrations of sulfasalazine (e.g. 100 μM), synthetic CDN 1.25 μg/ml, 20 h post stimulation) | transport of folates and folate-derivatives by SLC19A1 (SLC19A1 [3])
reduced the response | Nc1ncnc2c1ncn2[C@@H]1O[C@@H]2COP(=O)(O)O[C@H]3[C@@H](O)[C@H](n4cnc5c(N)ncnc54)O[C@@H]3COP(=O)(O)O[C@H]2[C@H]1O [CDA, cyclic di-AMP] |  |  |  | 
 | O=C(O)c1cc(/N=N/c2ccc(S(=O)(=O)Nc3ccccn3)cc2)ccc1O [sulfasalazine] | only marginally affected | complete blocking; also recorded: almost completely blocked | significantly increased | non-competitively inhibits
